According to PubChem BioAssay AID1963829 (Molecular Pharmacology Branch, DTP, NCI, 2024):
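Further: spheroids exposed to drugs for seven days before viability read; 100% = DMSO vehicle control wells.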

These compounds were tested on 935938-334-R-J1-PDC complex spheroid viability (assay: Anticancer human tumor 935938-334-R-J1-PDC patient-derived small intestine adenocarcinoma cell line growth inhibition [POLQ]). Conditions: second compound 3.16 µM; first compound 0.0316 µM; hits give low values.
Method in brief: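 Patient-derived tumour cells were co-cultured with HUVEC and mesenchymal stem cells as multicellular spheroids at 37 °C. They were treated with POLQ inhibitors (novobiocin, ART-558, RP6685) alone or combined with other agents. Top concentrations were at or near clinical Cmax (otherwise 10 microM; SN-38 at 1 microM), decreasing in half-log steps.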
CCc1c2c(nc3ccc(O)cc13)-c1cc3c(c(=O)n1C2)COC(=O)[C@]3(O)CC + Nc1ccc(C#CCN(C(=O)Cc2ncc(C(F)(F)F)cc2C(F)(F)F)c2ccc(F)cc2)nn1 was tested, and the viability, T/C was 43.9%. Work on COc1ccc([C@@H](O)c2cc(-c3ncnc4cc(N5CCOCC5)ccc34)c(F)cc2Cl)nn1 + Nc1ccc(C#CCN(C(=O)Cc2ncc(C(F)(F)F)cc2C(F)(F)F)c2ccc(F)cc2)nn1 yielded a viability, T/C of 109%. With C=CCn1c(=O)c2cnc(Nc3ccc(N4CCN(C)CC4)cc3)nc2n1-c1cccc(C(C)(C)O)n1 + COC1C(OC(N)=O)C(O)C(Oc2ccc3c(O)c(NC(=O)c4ccc(O)c(CC=C(C)C)c4)c(=O)oc3c2C)OC1(C)C the viability, T/C was 100%. O=C(Nc1ccc(O)c(NS(=O)(=O)c2ccc(F)cc2)c1)c1ccc(-c2ccccc2)cc1 + Nc1ccc(C#CCN(C(=O)Cc2ncc(C(F)(F)F)cc2C(F)(F)F)c2ccc(F)cc2)nn1 gave a viability, T/C of 91.8%. Compound C=CC(=O)N1CCN(c2nc(=O)n(-c3c(C)ccnc3C(C)C)c3nc(-c4c(O)cccc4F)c(F)cc23)C(C)C1 (stereo unspecified) + Nc1ccc(C#CCN(C(=O)Cc2ncc(C(F)(F)F)cc2C(F)(F)F)c2ccc(F)cc2)nn1 has a viability, T/C of 85.1%.

Same assay, conditions: second compound 3.16 µM; first compound 0.1 µM; hits give low values
Work on Cn1ncnc1[C@H]1c2n[nH]c(=O)c3cc(F)cc(c23)N[C@@H]1c1ccc(F)cc1 + COC1C(OC(N)=O)C(O)C(Oc2ccc3c(O)c(NC(=O)c4ccc(O)c(CC=C(C)C)c4)c(=O)oc3c2C)OC1(C)C yielded a viability, T/C of 90%. For CCc1c2c(nc3ccc(O)cc13)-c1cc3c(c(=O)n1C2)COC(=O)[C@]3(O)CC + Nc1ccc(C#CCN(C(=O)Cc2ncc(C(F)(F)F)cc2C(F)(F)F)c2ccc(F)cc2)nn1, the viability, T/C was 40.4%. For COc1ccc([C@@H](O)c2cc(-c3ncnc4cc(N5CCOCC5)ccc34)c(F)cc2Cl)nn1 + Nc1ccc(C#CCN(C(=O)Cc2ncc(C(F)(F)F)cc2C(F)(F)F)c2ccc(F)cc2)nn1, the viability, T/C was 98.9%. For C=CCn1c(=O)c2cnc(Nc3ccc(N4CCN(C)CC4)cc3)nc2n1-c1cccc(C(C)(C)O)n1 + COC1C(OC(N)=O)C(O)C(Oc2ccc3c(O)c(NC(=O)c4ccc(O)c(CC=C(C)C)c4)c(=O)oc3c2C)OC1(C)C, the viability, T/C was 112%. Compound O=C(Nc1ccc(O)c(NS(=O)(=O)c2ccc(F)cc2)c1)c1ccc(-c2ccccc2)cc1 + Nc1ccc(C#CCN(C(=O)Cc2ncc(C(F)(F)F)cc2C(F)(F)F)c2ccc(F)cc2)nn1 has a viability, T/C of 98%. Compound C=CC(=O)N1CCN(c2nc(=O)n(-c3c(C)ccnc3C(C)C)c3nc(-c4c(O)cccc4F)c(F)cc23)C(C)C1 (stereo unspecified) + Nc1ccc(C#CCN(C(=O)Cc2ncc(C(F)(F)F)cc2C(F)(F)F)c2ccc(F)cc2)nn1 has a viability, T/C of 89.9%.

Same assay, conditions: second compound 3.16 µM; first compound 0.316 µM; hits give low values
Work on CCc1c2c(nc3ccc(O)cc13)-c1cc3c(c(=O)n1C2)COC(=O)[C@]3(O)CC + Nc1ccc(C#CCN(C(=O)Cc2ncc(C(F)(F)F)cc2C(F)(F)F)c2ccc(F)cc2)nn1 yielded a viability, T/C of 30.8%. Compound COc1ccc([C@@H](O)c2cc(-c3ncnc4cc(N5CCOCC5)ccc34)c(F)cc2Cl)nn1 + Nc1ccc(C#CCN(C(=O)Cc2ncc(C(F)(F)F)cc2C(F)(F)F)c2ccc(F)cc2)nn1 has a viability, T/C of 96.5%. C=CCn1c(=O)c2cnc(Nc3ccc(N4CCN(C)CC4)cc3)nc2n1-c1cccc(C(C)(C)O)n1 + COC1C(OC(N)=O)C(O)C(Oc2ccc3c(O)c(NC(=O)c4ccc(O)c(CC=C(C)C)c4)c(=O)oc3c2C)OC1(C)C was tested, and the viability, T/C was 82.5%. In the case of O=C(Nc1ccc(O)c(NS(=O)(=O)c2ccc(F)cc2)c1)c1ccc(-c2ccccc2)cc1 + Nc1ccc(C#CCN(C(=O)Cc2ncc(C(F)(F)F)cc2C(F)(F)F)c2ccc(F)cc2)nn1, the viability, T/C is reported as 111%. C=CC(=O)N1CCN(c2nc(=O)n(-c3c(C)ccnc3C(C)C)c3nc(-c4c(O)cccc4F)c(F)cc23)C(C)C1 (stereo unspecified) + Nc1ccc(C#CCN(C(=O)Cc2ncc(C(F)(F)F)cc2C(F)(F)F)c2ccc(F)cc2)nn1 gave a viability, T/C of 114%.

Same assay, conditions: second compound 3.16 µM; first compound 1 µM; hits give low values
Work on CCc1c2c(nc3ccc(O)cc13)-c1cc3c(c(=O)n1C2)COC(=O)[C@]3(O)CC + Nc1ccc(C#CCN(C(=O)Cc2ncc(C(F)(F)F)cc2C(F)(F)F)c2ccc(F)cc2)nn1 yielded a viability, T/C of 30.6%. COc1ccc([C@@H](O)c2cc(-c3ncnc4cc(N5CCOCC5)ccc34)c(F)cc2Cl)nn1 + Nc1ccc(C#CCN(C(=O)Cc2ncc(C(F)(F)F)cc2C(F)(F)F)c2ccc(F)cc2)nn1 was tested, and the viability, T/C was 80.5%. In the case of C=CCn1c(=O)c2cnc(Nc3ccc(N4CCN(C)CC4)cc3)nc2n1-c1cccc(C(C)(C)O)n1 + COC1C(OC(N)=O)C(O)C(Oc2ccc3c(O)c(NC(=O)c4ccc(O)c(CC=C(C)C)c4)c(=O)oc3c2C)OC1(C)C, the viability, T/C is reported as 26.6%. For O=C(Nc1ccc(O)c(NS(=O)(=O)c2ccc(F)cc2)c1)c1ccc(-c2ccccc2)cc1 + Nc1ccc(C#CCN(C(=O)Cc2ncc(C(F)(F)F)cc2C(F)(F)F)c2ccc(F)cc2)nn1, the viability, T/C was 101%. With C=CC(=O)N1CCN(c2nc(=O)n(-c3c(C)ccnc3C(C)C)c3nc(-c4c(O)cccc4F)c(F)cc23)C(C)C1 (stereo unspecified) + Nc1ccc(C#CCN(C(=O)Cc2ncc(C(F)(F)F)cc2C(F)(F)F)c2ccc(F)cc2)nn1 the viability, T/C was 95.9%.

Same assay, conditions: second compound 3.16 µM; first compound 3.16 µM; hits give low values
With COc1ccc([C@@H](O)c2cc(-c3ncnc4cc(N5CCOCC5)ccc34)c(F)cc2Cl)nn1 + Nc1ccc(C#CCN(C(=O)Cc2ncc(C(F)(F)F)cc2C(F)(F)F)c2ccc(F)cc2)nn1 the viability, T/C was 52.1%. O=C(Nc1ccc(O)c(NS(=O)(=O)c2ccc(F)cc2)c1)c1ccc(-c2ccccc2)cc1 + Nc1ccc(C#CCN(C(=O)Cc2ncc(C(F)(F)F)cc2C(F)(F)F)c2ccc(F)cc2)nn1 showed a viability, T/C of 116%. With C=CC(=O)N1CCN(c2nc(=O)n(-c3c(C)ccnc3C(C)C)c3nc(-c4c(O)cccc4F)c(F)cc23)C(C)C1 (stereo unspecified) + Nc1ccc(C#CCN(C(=O)Cc2ncc(C(F)(F)F)cc2C(F)(F)F)c2ccc(F)cc2)nn1 the viability, T/C was 183%.

Same assay, conditions: second compound 3.16 µM; first compound 10 µM; hits give low values
For COc1ccc([C@@H](O)c2cc(-c3ncnc4cc(N5CCOCC5)ccc34)c(F)cc2Cl)nn1 + Nc1ccc(C#CCN(C(=O)Cc2ncc(C(F)(F)F)cc2C(F)(F)F)c2ccc(F)cc2)nn1, the viability, T/C was 29.6%. Work on O=C(Nc1ccc(O)c(NS(=O)(=O)c2ccc(F)cc2)c1)c1ccc(-c2ccccc2)cc1 + Nc1ccc(C#CCN(C(=O)Cc2ncc(C(F)(F)F)cc2C(F)(F)F)c2ccc(F)cc2)nn1 yielded a viability, T/C of 70.9%. C=CC(=O)N1CCN(c2nc(=O)n(-c3c(C)ccnc3C(C)C)c3nc(-c4c(O)cccc4F)c(F)cc23)C(C)C1 (stereo unspecified) + Nc1ccc(C#CCN(C(=O)Cc2ncc(C(F)(F)F)cc2C(F)(F)F)c2ccc(F)cc2)nn1 was tested, and the viability, T/C was 113%.

Same assay, conditions: second compound 10 µM; first compound 0.000316 µM; hits give low values
Cn1ncnc1[C@H]1c2n[nH]c(=O)c3cc(F)cc(c23)N[C@@H]1c1ccc(F)cc1 + COC1C(OC(N)=O)C(O)C(Oc2ccc3c(O)c(NC(=O)c4ccc(O)c(CC=C(C)C)c4)c(=O)oc3c2C)OC1(C)C gave a viability, T/C of 128%.

Same assay, conditions: second compound 10 µM; first compound 0.001 µM; hits give low values
Compound Cn1ncnc1[C@H]1c2n[nH]c(=O)c3cc(F)cc(c23)N[C@@H]1c1ccc(F)cc1 + COC1C(OC(N)=O)C(O)C(Oc2ccc3c(O)c(NC(=O)c4ccc(O)c(CC=C(C)C)c4)c(=O)oc3c2C)OC1(C)C has a viability, T/C of 92.7%.

Same assay, conditions: second compound 10 µM; first compound 0.00316 µM; hits give low values
Cn1ncnc1[C@H]1c2n[nH]c(=O)c3cc(F)cc(c23)N[C@@H]1c1ccc(F)cc1 + COC1C(OC(N)=O)C(O)C(Oc2ccc3c(O)c(NC(=O)c4ccc(O)c(CC=C(C)C)c4)c(=O)oc3c2C)OC1(C)C was tested, and the viability, T/C was 85.4%. Work on CCc1c2c(nc3ccc(O)cc13)-c1cc3c(c(=O)n1C2)COC(=O)[C@]3(O)CC + Nc1ccc(C#CCN(C(=O)Cc2ncc(C(F)(F)F)cc2C(F)(F)F)c2ccc(F)cc2)nn1 yielded a viability, T/C of 88.8%.
